The test system of this test is C. albicans SN250, C. albicans, C. krusei, C. glabrata, C. tropicalis, A. fumigatus 91, 1163, 1100. In words: Average MIC over the tested strains. The test is classed as cell-based. As to conditions: for MIC (Average Minimum Inhibition Concentration): Table 7, C16 amide AmB variants; for Average MIC: Table 12, C16 amides of C2'epiAmB.

Turning to `COC1OC(CO)C(O)C(NC(=O)C2C(O)CC3(O)CC(O)CC(O)C(O)CCC(O)CC(O)CC(=O)OC(C)C(C)C(O)C(C)C=CC=CC=CC=CC=CC=CC=CC(OC4OC(C)C(O)C(N)C4O)CC2O3)C1O` (mixture of isomers) [FO], the “MIC (Average Minimum Inhibition Concentration)” value is 0.258 µM. Still for that read-out and setting: in the case of `CNC(=O)CNC(=O)C1C(O)CC2(O)CC(O)CC(O)C(O)CCC(O)CC(O)CC(=O)OC(C)C(C)C(O)C(C)C=CC=CC=CC=CC=CC=CC=CC(OC3OC(C)C(O)C(N)C3O)CC1O2` (centres unmarked) [GN] it was 0.344 µM; in that of `CC1C=CC=CC=CC=CC=CC=CC=CC(OC2OC(C)C(O)C(N)C2O)CC2OC(O)(CC(O)CC(O)C(O)CCC(O)CC(O)CC(=O)OC(C)C(C)C1O)CC(O)C2C(=O)NC1C(O)COC(O)C1O` (mixture of isomers) [GE], 0.320 µM. Still for that read-out and setting: to `CC1C=CC=CC=CC=CC=CC=CC=CC(OC2OC(C)C(O)C(N)C2O)CC2OC(O)(CC(O)CC(O)C(O)CCC(O)CC(O)CC(=O)OC(C)C(C)C1O)CC(O)C2C(=O)NCC1OC(O)C(O)C(O)C1O` (centres unmarked) [EF] belongs 0.430 µM.

With `CC(O)CNC(=O)C1C(O)CC2(O)CC(O)CC(O)C(O)CCC(O)CC(O)CC(=O)OC(C)C(C)C(O)C(C)C=CC=CC=CC=CC=CC=CC=CC(OC3OC(C)C(O)C(N)C3O)CC1O2` (centres unmarked) [FJ], the “MIC (Average Minimum Inhibition Concentration)” value was determined as 0.195 µM.

Consider `CC1C=CC=CC=CC=CC=CC=CC=CC(OC2OC(C)C(O)C(N)C2O)CC2OC(O)(CC(O)CC(O)C(O)CCC(O)CC(O)CC(=O)OC(C)C(C)C1O)CC(O)C2C(=O)NCCn1cncn1` (centres unmarked) [FY], for which the “MIC (Average Minimum Inhibition Concentration)” value amounted to 0.316 µM.

Consider `CC1C=CC=CC=CC=CC=CC=CC=CC(OC2OC(C)C(O)C(N)C2O)CC2OC(O)(CC(O)CC(O)C(O)CCC(O)CC(O)CC(=O)OC(C)C(C)C1O)CC(O)C2C(=O)NCCC#N` (centres unmarked) [EK], for which the “MIC (Average Minimum Inhibition Concentration)” value is 0.438 µM. `CC1C=CC=CC=CC=CC=CC=CC=CC(OC2OC(C)C(O)C(N)C2O)CC2OC(O)(CC(O)CC(O)C(O)CCC(O)CC(O)CC(=O)OC(C)C(C)C1O)CC(O)C2C(=O)NCCC(N)=O` (centres unmarked) [BU]: the “Average MIC” value worked out at 2.563 µM.

As for `CC1C=CC=CC=CC=CC=CC=CC=CC(OC2OC(C)C(O)C(N)C2O)CC2OC(O)(CC(O)CC(O)C(O)CCC(O)CC(O)CC(=O)OC(C)C(C)C1O)CC(O)C2C(=O)NCCOCC(N)=O` (centres unmarked) [FD], the “MIC (Average Minimum Inhibition Concentration)” value was determined as 0.516 µM. The same measure, in the same setting: in the case of `CC1C=CC=CC=CC=CC=CC=CC=CC(OC2OC(C)C(O)C(N)C2O)CC2OC(O)(CC(O)CC(O)C(O)CCC(O)CC(O)CC(=O)OC(C)C(C)C1O)CC(O)C2C(=O)NC1CCNC1=O` (centres unmarked) [GC] it was 0.320 µM. With `CNC(=O)C1C(O)CC2(O)CC(O)CC(O)C(O)CCC(O)CC(O)CC(=O)OC(C)C(C)C(O)C(C)C=CC=CC=CC=CC=CC=CC=CC(OC3OC(C)C(O)C(N)C3O)CC1O2` (centres unmarked) [BS], the “Average MIC” value stood at 1.734 µM.

Take `CC1C=CC=CC=CC=CC=CC=CC=CC(OC2OC(C)C(O)C(N)C2O)CC2OC(O)(CC(O)CC(O)C(O)CCC(O)CC(O)CC(=O)OC(C)C(C)C1O)CC(O)C2C(=O)NCCCNC(N)=O` (centres unmarked) [EQ]: the “MIC (Average Minimum Inhibition Concentration)” value is 0.484 µM. For `COC(=O)C(Cc1c[nH]cn1)NC(=O)C1C(O)CC2(O)CC(O)CC(O)C(O)CCC(O)CC(O)CC(=O)OC(C)C(C)C(O)C(C)C=CC=CC=CC=CC=CC=CC=CC(OC3OC(C)C(O)C(N)C3O)CC1O2` (centres unmarked) [BX], the “Average MIC” value was 9.073 µM.

As to `CC1C=CC=CC=CC=CC=CC=CC=CC(OC2OC(C)C(O)C(N)C2O)CC2OC(O)(CC(O)CC(O)C(O)CCC(O)CC(O)CC(=O)OC(C)C(C)C1O)CC(O)C2C(=O)NCCCO` (centres unmarked) [GA], the “MIC (Average Minimum Inhibition Concentration)” value turned out to be 0.320 µM. Consider `CC1C=CC=CC=CC=CC=CC=CC=CC(OC2OC(C)C(O)C(N)C2O)CC2OC(O)(CC(O)CC(O)C(O)CCC(O)CC(O)CC(=O)OC(C)C(C)C1O)CC(O)C2C(=O)NCC(O)C(O)C(O)C(O)CO` (centres unmarked) [FW], for which the “MIC (Average Minimum Inhibition Concentration)” value worked out at 0.313 µM. Same read-out and setting: to `CC1C=CC=CC=CC=CC=CC=CC=CC(OC2OC(C)C(O)C(N)C2O)CC2OC(O)(CC(O)CC(O)C(O)CCC(O)CC(O)CC(=O)OC(C)C(C)C1O)CC(O)C2C(=O)NC1CCCC(O)C1` (centres unmarked) [GM] belongs 0.344 µM; to `CC1C=CC=CC=CC=CC=CC=CC=CC(OC2OC(C)C(O)C(N)C2O)CC2OC(O)(CC(O)CC(O)C(O)CCC(O)CC(O)CC(=O)OC(C)C(C)C1O)CC(O)C2C(=O)NCCCCO` (centres unmarked) [EY], 0.500 µM. The same measure, in the same setting: in the case of `COCC(C)NC(=O)C1C(O)CC2(O)CC(O)CC(O)C(O)CCC(O)CC(O)CC(=O)OC(C)C(C)C(O)C(C)C=CC=CC=CC=CC=CC=CC=CC(OC3OC(C)C(O)C(N)C3O)CC1O2` (centres unmarked) [EM] it was 0.469 µM; in that of `CC1C=CC=CC=CC=CC=CC=CC=CC(OC2OC(C)C(O)C(N)C2O)CC2OC(O)(CC(O)CC(O)C(O)CCC(O)CC(O)CC(=O)OC(C)C(C)C1O)CC(O)C2C(=O)NC1C(O)OC(CO)C(O)C1O` (mixture of isomers) [GL], 0.344 µM. Still for that read-out and setting: in the case of `CC1C=CC=CC=CC=CC=CC=CC=CC(OC2OC(C)C(O)C(N)C2O)CC2OC(O)(CC(O)CC(O)C(O)CCC(O)CC(O)CC(=O)OC(C)C(C)C1O)CC(O)C2C(=O)NC1(C(N)=O)CNC1` (centres unmarked) [GG] it was 0.328 µM. Turning to `C=CCNC(=O)C1C(O)CC2(O)CC(O)CC(O)C(O)CCC(O)CC(O)CC(=O)OC(C)C(C)C(O)C(C)C=CC=CC=CC=CC=CC=CC=CC(OC3OC(C)C(O)C(N)C3O)CC1O2` (centres unmarked) [EL], the “MIC (Average Minimum Inhibition Concentration)” value was found to be 0.453 µM. Take `O=CO` [FA]: the “MIC (Average Minimum Inhibition Concentration)” value was 0.516 µM. For `CC1C=CC=CC=CC=CC=CC=CC=CC(OC2OC(C)C(O)C(N)C2O)CC2OC(O)(CC(O)CC(O)C(O)CCC(O)CC(O)CC(=O)OC(C)C(C)C1O)CC(O)C2C(=O)NCCS(C)(=O)=O` (centres unmarked) [EE], the “MIC (Average Minimum Inhibition Concentration)” value was 0.422 µM.

In the case of `CC1C=CC=CC=CC=CC=CC=CC=CC(OC2OC(C)C(O)C(N)C2O)CC2OC(O)(CC(O)CC(O)C(O)CCC(O)CC(O)CC(=O)OC(C)C(C)C1O)CC(O)C2C(=O)NC1C(CO)OC(n2cnc3c(N)ncnc32)C1O` (mixture of isomers) [EA], the “MIC (Average Minimum Inhibition Concentration)” value came out at 0.422 µM. On the same count and under the same terms, to `CC1C=CC=CC=CC=CC=CC=CC=CC(OC2OC(C)C(O)C(N)C2O)CC2OC(O)(CC(O)CC(O)C(O)CCC(O)CC(O)CC(=O)OC(C)C(C)C1O)CC(O)C2C(=O)NC1C(O)OC(CO)C(O)C1O` (centres unmarked) [FL] belongs 0.227 µM; to `CC1C=CC=CC=CC=CC=CC=CC=CC(OC2OC(C)C(O)C(N)C2O)CC2OC(O)(CC(O)CC(O)C(O)CCC(O)CC(O)CC(=O)OC(C)C(C)C1O)CC(O)C2C(=O)NC(CC(N)=O)C(N)=O` (centres unmarked) [FZ], 0.316 µM. For `CC1C=CC=CC=CC=CC=CC=CC=CC(OC2OC(C)C(O)C(N)C2O)CC2OC(O)(CC(O)CC(O)C(O)CCC(O)CC(O)CC(=O)OC(C)C(C)C1O)CC(O)C2C(=O)NC1CCC1` (centres unmarked) [BW], the “Average MIC” value was 5.563 µM.

For the compound `CCC(O)CNC(=O)C1C(O)CC2(O)CC(O)CC(O)C(O)CCC(O)CC(O)CC(=O)OC(C)C(C)C(O)C(C)C=CC=CC=CC=CC=CC=CC=CC(OC3OC(C)C(O)C(N)C3O)CC1O2` (mixture of isomers) [FX], the “MIC (Average Minimum Inhibition Concentration)” value was 0.313 µM. The same measure, in the same setting: in the case of `CC1C=CC=CC=CC=CC=CC=CC=CC(OC2OC(C)C(O)C(N)C2O)CC2OC(O)(CC(O)CC(O)C(O)CCC(O)CC(O)CC(=O)OC(C)C(C)C1O)CC(O)C2C(=O)NCCCS(N)(=O)=O` (centres unmarked) [EP] it was 0.484 µM.

(Values after patent US20230016424A1, “HYBRID AMIDE DERIVATIVES OF AMPHOTERICIN B” (The Board of Trustees of the University of Illinois, priority 2019, published 2023).)
